Results as given in PubChem BioAssay (NCI).
Values joined by “and” are separate entries in the source; they are usually repeats but may differ in a detail not shown here. Equal values may be shown once.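 Cultured in 96-well plates, cells were exposed to test compound for 48 hours across five concentrations. The concentration for full growth arrest is given as TGI.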

Experiments:
Experiment in all cases: NCI tumour cell line growth inhibition, 48 h
CCRF-CEM leukemia = test system: CCRF-CEM leukemia
HOP-92 NSCLC = test system: HOP-92 NSCLC
SF-295 CNS = test system: SF-295 CNS
HL-60(TB) leukemia = test system: HL-60(TB) leukemia
MCF7 breast = test system: MCF7 breast
MOLT-4 leukemia = test system: MOLT-4 leukemia
KM12 colon = test system: KM12 colon
RXF 393 renal = test system: RXF 393 renal
COLO 205 colon = test system: COLO 205 colon
HOP-62 NSCLC = test system: HOP-62 NSCLC
ACHN renal = test system: ACHN renal

Row | SMILES | TGI (CCRF-CEM leukemia) | TGI (HOP-92 NSCLC) | TGI (SF-295 CNS) | TGI (HL-60(TB) leukemia) | TGI (MCF7 breast) | TGI (MOLT-4 leukemia) | TGI (KM12 colon) | TGI (RXF 393 renal) | TGI (COLO 205 colon) | TGI (HOP-62 NSCLC) | TGI (ACHN renal)
1 | Cc1[nH]c2ncn(/N=C/c3ccccc3)c(=N)c2c1Cc1ccccc1 | > 100 µM | > 100 µM | > 100 µM | > 100 µM | > 100 µM | > 100 µM | > 100 µM | > 100 µM | > 100 µM | > 100 µM | > 100 µM
2 | O=c1cc(-c2ccc(O)c(O)c2)oc2cc(OC3OC(CO)C(O)C(O)C3O)cc(O)c12 (centres undefined) | – | > 100 µM | > 100 µM | > 100 µM | > 100 µM | > 100 µM | > 100 µM | > 100 µM | > 100 µM | > 100 µM | > 100 µM
3 | COc1ccc2oc(=N)c(C(N)=S)cc2c1 | > 100 µM | 50.7 µM | > 100 µM | > 100 µM | > 100 µM | > 100 µM | 84.8 µM | 32.8 µM | > 100 µM | > 100 µM | 79.2 µM
4 | Nc1ncc2c(n1)-c1ccccc1OC2NC1CC1 (centres undefined) | > 100 µM | > 100 µM | > 100 µM | > 100 µM | > 100 µM | > 100 µM | > 100 µM | > 100 µM | > 100 µM | – | > 100 µM
5 | N#C/C(=C\c1ccc(Cl)cc1)c1nc2ccccc2c(=O)[nH]1 | > 100 µM | 39.9 µM | > 100 µM | > 100 µM | > 100 µM | > 100 µM | > 100 µM | > 100 µM | > 100 µM | > 100 µM | > 100 µM
6 | CC[C@@]1(O)C(=O)OCc2c1c(Cl)c1n(c2=O)Cc2cc3ccccc3nc2-1 | > 29 µM | > 70.3 µM | 18 µM | > 26.3 µM | > 34.7 µM | 19.3 µM | > 95.5 µM | 15.1 µM | > 100 µM | 8.03 µM | 6.05 µM
7 | CCOc1ccc(C2c3[nH]c4ccccc4c3CCN2C(=O)c2cccs2)cc1 (centres undefined) | > 100 µM | > 100 µM | > 100 µM | > 100 µM | > 100 µM | > 100 µM | > 100 µM | > 100 µM | > 100 µM | > 100 µM | > 100 µM
8 | CN(C)c1ccc(C(C#N)N2CCCN(C(C#N)c3ccc(N(C)C)cc3)C2c2ccc(N(C)C)cc2)cc1 (centres undefined) | > 100 µM | > 100 µM | > 100 µM | > 100 µM | > 100 µM | > 100 µM | > 100 µM | > 100 µM | > 100 µM | > 100 µM | > 100 µM
9 | CCOP(=O)(CS(C)=O)O[C@@H]1C[C@H](C)CC[C@H]1C(C)C (some centres undefined) | 11.5 µM | 16.9 µM | 18.5 µM | > 36.4 µM | 11.1 µM | > 100 µM | > 28.7 µM | 7.83 µM | 19.8 µM | 21.4 µM | 15.8 µM
10 | COC(=O)n1c(=O)nc2c3c(ncn21)Oc1c(c(-c2ccccc2)nn1-c1ccccc1)C3c1ccc(Cl)cc1 (centres undefined) | 3.27 µM | 3.39 µM | 3.04 µM | 3.17 µM | 3.06 µM | – | 2.66 µM | 2.98 µM | 2.76 µM | 3.09 µM | 3.21 µM
11 | CCN(CC)c1ccc(/C=C/C2=NN(c3cccc(S(=O)(=O)O)c3)C3(C2)C(Cl)C(=O)N3c2nc3ccccc3s2)cc1 (centres undefined) | 4.47 µM | 15.3 µM | 27.7 µM | 4.01 µM | 21.1 µM | 13.9 µM | 20.9 µM | 21.1 µM | 31.8 µM | 22.9 µM | 23.8 µM
12 | COc1ccc(NC=O)c(C(O)CCNC(C)=O)c1 (centres undefined) | > 100 µM | > 100 µM | > 100 µM | > 100 µM | > 100 µM | > 100 µM | > 100 µM | > 100 µM | > 100 µM | – | > 100 µM
13 | COc1ccc(CSCc2cc(OC)c(OC)c(OC)c2)cc1 | > 100 µM | > 86.6 µM | > 100 µM | > 100 µM | > 100 µM | > 100 µM | > 100 µM | > 100 µM | > 100 µM | > 100 µM | > 100 µM
14 | COc1cc(C2c3cccc4cccc(c34)C3CCC(=O)N32)cc(O)c1O (centres undefined) | 31.4 µM | > 50 µM | > 50 µM | > 50 µM | > 50 µM | 41.6 µM | > 50 µM | > 50 µM | > 50 µM | > 50 µM | > 50 µM
15 | CN1CC=C(OP(=O)(NCc2ccccc2)N(CCCl)CCCl)CC1 (centres undefined) | > 100 µM | > 100 µM | > 100 µM | > 100 µM | > 100 µM | > 100 µM | > 100 µM | > 100 µM | > 100 µM | > 100 µM | > 100 µM
16 | CC(C)=CCC/C(C)=C/Cc1cc(/C=C/c2cc(O)c(CC=C(C)C)c(O)c2)cc(O)c1O | – | 15.6 µM | 18.2 µM | 2.79 µM | 13.4 µM | 11.8 µM | 14.7 µM | 8.65 µM | 33.4 µM | 24.4 µM | 3.19 µM
17 | CCOC(=O)CCc1c(C(=O)OCC)[nH]c(/C=C2/NC(=O)C(C)=C2CC)c1C | – | 42.4 µM | 30.6 µM | 25.7 µM | 17.7 µM | 13.1 µM | 23.9 µM | 30.3 µM | 33.2 µM | 29.8 µM | 60.9 µM
18 | Cc1c(-c2ccccc2)c(-c2ccc(OCCN(C)C)cc2)n2ccccc12 | 15.5 µM | 24.6 µM | 26.7 µM | 19.4 µM | 23.7 µM | 15.8 µM | 15.1 µM | 25.7 µM | 3.08 µM | 28.6 µM | 27.8 µM

Row | SMILES | TGI (CCRF-CEM leukemia) | TGI (HOP-92 NSCLC) | TGI (SF-295 CNS) | TGI (HL-60(TB) leukemia) | TGI (MCF7 breast) | TGI (MOLT-4 leukemia) | TGI (KM12 colon) | TGI (RXF 393 renal) | TGI (COLO 205 colon) | TGI (HOP-62 NSCLC) | TGI (ACHN renal)
19 | N#Cc1cnn2c1n[n+]([O-])c1ccc(Cl)cc12 | 4.34 µM | 5.21 µM | 29.6 µM | 6.52 µM | > 100 µM | 17.6 µM | > 100 µM | 42.4 µM | 31.7 µM | 38.6 µM | 10.5 µM
20 | C[N+](C)(C)CC1Cc2ccccc2C1=O (centres undefined) | 4.22 µM | > 10 µM | > 10 µM | 4.45 µM | 5.41 µM | 4.95 µM | > 10 µM | > 10 µM | > 6.59 µM | > 10 µM | > 10 µM
21 | Cc1sc2ncnc(NCCc3ccccc3)c2c1C | 49.3 µM | 15.5 µM | 36.9 µM | 29.3 µM | 28.6 µM | 63.8 µM | 29.6 µM | 34.1 µM | 24.4 µM | 33.8 µM | 69.2 µM
22 | COc1c(O)cc(/C=C/c2cc(O)cc3c2[C@@]2(C(=O)O3)c3c(O)cc(O)cc3OC2c2cccc(O)c2)cc1O (some centres undefined) | > 100 µM | > 100 µM | – | 69.1 µM | > 100 µM | 11 µM | > 100 µM | > 100 µM | > 100 µM | > 100 µM | > 100 µM
23 | CC1C2CC(C(C3C(=O)C4CC3C(C)(C)C4C)C2=O)C1(C)C (centres undefined) | > 100 µM | > 100 µM | > 100 µM | > 100 µM | > 100 µM | > 100 µM | > 100 µM | > 100 µM | > 100 µM | > 100 µM | > 100 µM
24 | CC(=O)c1c2c(cc3c1CC1(Cc4cc5c(cc4C1)CCC5)C3)CCC2 | > 100 µM | > 100 µM | > 100 µM | > 100 µM | > 100 µM | > 100 µM | – | > 100 µM | – | > 100 µM | > 100 µM
25 | COc1ccc(NC(=O)C2=C(SC)C(C#N)C(=O)N=C2N)cc1 (centres undefined) | > 100 µM | 69.8 µM | > 100 µM | > 100 µM | > 100 µM | > 100 µM | 8.57 µM | > 100 µM | > 100 µM | > 100 µM | > 100 µM
26 | CCOC(=O)CNC(=O)C(CSC(=O)N(O)c1ccc(Br)cc1)NC(=O)CCC(N)C(=O)OCC (centres undefined) | > 50 µM | > 50 µM | > 50 µM | 0.00622 µM | > 50 µM | > 50 µM | > 50 µM | > 50 µM | > 50 µM | > 50 µM | > 50 µM
27 | COc1ccccc1NC(=O)C(C#N)=C(SC)SC | > 100 µM | > 100 µM | > 100 µM | > 100 µM | > 100 µM | > 100 µM | > 100 µM | > 100 µM | > 100 µM | > 100 µM | > 100 µM
28 | O=C1C(NCCc2cc(Br)c(O)c(Br)c2)=CC(=O)c2ncccc21 | 23.5 µM | 47.5 µM | 12.9 µM | 12.7 µM | 17.4 µM | 24.1 µM | 20.1 µM | 29.1 µM | 19.2 µM | 9.99 µM | 24.9 µM
29 | CC(=NNC(=S)Nc1ccccc1C)c1cccc(C(C)=NNC(=S)Nc2ccccc2C)n1 | > 100 µM | > 100 µM | > 100 µM | > 100 µM | > 100 µM | > 100 µM | > 100 µM | > 100 µM | > 100 µM | > 100 µM | 59.8 µM
30 | CN(CCO)CC(=O)CC(O)(C(F)(F)F)C(F)(F)F | 91.9 µM | 54.2 µM | > 100 µM | 73.5 µM | > 100 µM | > 100 µM | > 100 µM | 46.8 µM | > 100 µM | – | 99.4 µM
31 | COC(=O)/C=C/c1cc(OC)c2c(c1)C(C(=O)OC)C(c1ccc(OC)c(OC)c1)O2 (centres undefined) | > 100 µM | > 100 µM | > 100 µM | > 100 µM | > 100 µM | > 100 µM | > 100 µM | > 100 µM | > 100 µM and 17.6 µM | > 100 µM | > 100 µM
32 | Cc1ccc2c(ccc3c[n+]4ccccc4c(C)c32)c1 | > 100 µM | 22.8 µM | 27.2 µM | > 100 µM | 15.6 µM | > 100 µM | 2.5 µM | > 100 µM | 3.84 µM | 11.3 µM | 39 µM
33 | O=C(Nc1ccccc1)N1CCNC1=S | > 100 µM | > 100 µM | > 100 µM | > 100 µM | > 100 µM | > 100 µM | > 100 µM | 98.2 µM | > 100 µM | > 100 µM | > 100 µM
34 | CC(=O)Nc1c(C)cc(OCC(=O)O)cc1C | > 100 µM | > 100 µM | > 100 µM | > 100 µM | > 100 µM | – | > 100 µM | > 100 µM | > 100 µM | > 100 µM | > 100 µM
35 | CCCCCCCCCC(=O)OCC1(CO)C/C(=C/CC(C(C)C)C(C)C)C(=O)O1 (centres undefined) | 73.1 µM | > 100 µM | > 100 µM | – | > 100 µM | 54 µM | 83.7 µM | > 100 µM | 28.7 µM | > 100 µM | > 100 µM
36 | O=C(CNC(=O)OCc1ccccc1)NCCCCC(NC(=O)OCc1ccccc1)C(=O)O (centres undefined) | > 100 µM | > 100 µM | > 100 µM | > 100 µM | > 100 µM | > 100 µM | > 100 µM | > 100 µM | > 100 µM | > 100 µM | > 100 µM
